Format in all cases: in vivo
One data set concerns Haemonchus contortus. The experiment in a line: Haemonchus contortus larvacidal (larval development) assay. Conditions: 144 h, read-out: Haemonchus contortus LD99. An outline of the steps:
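Nematode eggs placed on agar containing compound (12 two-fold dilutions, final 0.024–50 μg/ml) and left 6 days to develop to L3. LD99 is the lowest concentration inhibiting development of 99% of larvae, derived from well titre (2^n−1) and top concentration.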

In data set [1] the test system is cat flea (Ctenocephalides felis). The experiment in a line: whole plant or invertebrate. As to conditions: Ctenocephalides felis. In short, it runs like this: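 Adult C. felis (3-7 days post-emergence; 15 per flask, at least 4 replicates) exposed to a glass flask base dried 24 h after coating with compound in acetone at 1.26 μg/cm^2. Held at 25±1 °C, 75±5% humidity; mortality (immobile or unable to right) scored at 8, 24 and/or 48 h as percentage.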

Data set [2] shares this test system. The data set is described as follows: Ctenocephalides felis adulticide assay: dose response (LC50). An outline of the steps:
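Groups of 15 adult cat fleas, 3–7 days post-emergence, were exposed for 24 h at 25° C and 75% humidity to glass flask bases coated with six serial doses in acetone and dried for 24 h. Mortality was scored at 8 and 24 h, and LC50 was the surface-treatment concentration killing 50%.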

In data set [3] the test system is Brown Dog Tick (Rhipicephalus sanguineus). The experiment in a line: Rapid screening protocol for topical application on brown dog ticks. As to conditions: 48 h; Laboratory 2 F data.
Data set [4] shares this test system. The experiment in a line: Dose response protocol for topical application on brown dog ticks (LD50). Conditions: 24 h mortality. How it is done: e) Dose response protocol for topical application on brown dog ticks (Rhipicephalus sanguineus): The test determines the level of insecticidal activity of sample compounds or formulations when applied topically on brown dog ticks. Sample compounds were stored prior to use in a freezer (−5±1° C.), unless otherwise specified.
• Mortality: A tick is defined as dead after it gives no apparent response when touched lightly or gently breathed upon, while observed for 30 seconds. • LD50 (Lethal Dose 50): The dose of a topically applied treatment at which 50% of the dog ticks are killed. • Reference compound: To assess an experimental compound for significant acaricidal activity a single dose level is chosen, which is based upon known results from previous experiments using a commercially available active i.e., a reference compound. The reference compound selected is one in common use, and one that has a similar mode of action against the Brown Dog Tick (i.e., the test species). • Recovery container: A recovery container consists of a 500 ml round plastic container measuring 115 mm diameter and 70 mm height, with a tight fitting lid that has 10 small (˜1 mm) holes inserted for air exchange. A 90 mm diameter piece of filter paper was placed on the bottom of the container and moistened with 1 mL of de-stilled water.
Adult, mixed sex, Brown Dog Ticks (Rhipicephalus sanguineus) were reared as follows: (i) cultured, (ii) transferred unfed, to a testing laboratory, and (iii) then maintained under controlled conditions (i.e., temp. 18°±2° C., humidity 75±5% RH). The ticks used were selected for vigor prior to testing, i.e., capable of actively walking and responsive to being touched or gently breathed upon.
During the testing, the temperature was maintained at 25±1° C., and the humidity was ambient. Seven dose levels (concentrations) of sample compound, in the form of serial dilutions in acetone, were derived from a pilot study and covered a range that produced very low to very high mortality. Groups of ten ticks were treated topically (on the abdomen) with 1 μL of a single dose level of the sample compound. Each test was replicated four times, i.e., employing a total of 40 ticks per dose level of each sample compound. As a control, ten ticks were treated with solvent only (acetone) for each test. Following the treatment, the ticks were held in recovery containers maintained under appropriate rearing conditions for 24 hours. Mortality resulting from the treatments was recorded at 24 hours. […] Press, London (1971).]

[5] abbreviates: 24 h, read-out: C. felis Mortality (%) 24 h, 24 h, Laboratory 1 A data.
[6] abbreviates: 8 h, read-out: C. felis Mortality (%) 8 h, 8 h, Laboratory 2 B data.
Where [7] appears, read: 24 h, read-out: C. felis Mortality (%) 24 h, 24 h, Laboratory 2 B data.

Read-outs that look alike come from different tables or passages of the source.

`CC/C(=N\Oc1ccc(F)cc1)c1cc(Cl)ccc1NS(=O)(=O)C(F)(F)F` [Compound 130, N-{4-chloro-2-[1-(4-fluorophenoxyimino)propyl]phenyl}trifluoromethanesulfonamide]: in the data set with Haemonchus contortus, the IC99 came to 1.5 µg/mL. For the same compound, the mortality – broadly, the percentage killed – at 1.26 µg/cm2, 1.26 µg/cm2 in data set [1] (setting [5]) amounted to 100%. Also, the “C. felis LC50” value amounted to 0.2 μg/cm^2 in data set [2] (Laboratory 1 C data) and 0.03 μg/cm^2 in data set [2] (Laboratory 2 D data). In data set [3], the “R. sanguineus Mortality (%) 48 h” value is 100%. The “R. sanguineus LD50” value in data set [4] came out at 1.5 μg/tick.

Turning to `C/C(=N\OCc1ccc(Cl)s1)c1cc(Cl)ccc1NS(=O)(=O)C(F)(F)F` [Compound 194, N-{4-chloro-2-[1-(5-chlorothiophen-2-ylmethoxyimino)ethyl]phenyl}trifluoromethanesulfonamide], the mortality at 1.26 µg/cm2, 1.26 µg/cm2 in data set [1] (setting [6]) and in data set [1] (setting [7]) was 100% throughout. In addition, the “C. felis LC50” value in data set [2] (Laboratory 2 D data) was 0.02^D μg/cm^2. Also, in data set [3], the “R. sanguineus Mortality (%) 48 h” value is on record as 100%. For the same compound, the “R. sanguineus LD50” value in data set [4] is 2.0 μg/tick.

Regarding `C#CCO/N=C(\CC)c1cc(Cl)ccc1NS(=O)(=O)C(F)(F)F` [Compound 208], the mortality at 1.26 µg/cm2, 1.26 µg/cm2 in data set [1] (setting [6]) and in data set [1] (setting [7]) was 100% in each case. Besides, in data set [2] (Laboratory 2 D data), the “C. felis LC50” value is recorded as 0.02^D μg/cm^2. In data set [3], the “R. sanguineus Mortality (%) 48 h” value was 100%. In addition, the “R. sanguineus LD50” value in data set [4] was 0.8 μg/tick.

For the compound `CC/C(=N\OCC1CC1)c1cc(Cl)ccc1NS(=O)(=O)C(F)(F)F` [Compound 196, N-[4-chloro-2-(1-cyclopropylmethoxyiminopropyl)phenyl]trifluoromethanesulfonamide], the mortality at 1.26 µg/cm2, 1.26 µg/cm2 was 96% in data set [1] (setting [6]) and 100% in data set [1] (setting [7]). The “C. felis LC50” value in data set [2] (Laboratory 2 D data) is 0.008^D μg/cm^2. Moreover, in data set [3], the “R. sanguineus Mortality (%) 48 h” value was determined as 100%. Further, the “R. sanguineus LD50” value in data set [4] came to 1.2 μg/tick.

Consider `CC/C(=N\OCC1CCCO1)c1cc(Cl)ccc1NS(=O)(=O)C(F)(F)F` (centres unmarked) [Compound 205], for which the values for the mortality at 1.26 µg/cm2, 1.26 µg/cm2 in data set [1] (setting [6]) and in data set [1] (setting [7]) were 97% and 98%, respectively. In addition, the “C. felis LC50” value in data set [2] (Laboratory 2 D data) is recorded as 0.02^D μg/cm^2. The “R. sanguineus Mortality (%) 48 h” value in data set [3] is listed as 100%. The “R. sanguineus LD50” value in data set [4] came out at 3.1 μg/tick.

With `C=CCO/N=C(\CC)c1cc(Cl)ccc1NS(=O)(=O)C(F)(F)F` [Compound 156, N-[2-(1-allyloxyiminopropyl)-4-chlorophenyl]trifluoromethanesulfonamide], the mortality at 1.26 µg/cm2, 1.26 µg/cm2 in data set [1] (setting [5]) is 100%. Besides, the “C. felis LC50” value in data set [2] (Laboratory 1 C data) was 0.4 μg/cm^2; in data set [2] (Laboratory 2 D data), 0.02 μg/cm^2. For the same compound, the “R. sanguineus Mortality (%) 48 h” value in data set [3] is recorded as 95%. Moreover, in data set [4], the “R. sanguineus LD50” value is recorded as 0.6 μg/tick.

For the compound `C/C(=N\OCC1CC1)c1cc(Cl)ccc1NS(=O)(=O)C(F)(F)F` [Compound 187, N-[4-chloro-2-(1-cyclopropylmethoxyiminoethyl)phenyl]trifluoromethanesulfonamide], the mortality at 1.26 µg/cm2, 1.26 µg/cm2 in data set [1] (setting [6]) and in data set [1] (setting [7]) was 100% throughout. For the same compound, the results for the “C. felis LC50” value in data set [2] (Laboratory 1 C data) and in data set [2] (Laboratory 2 D data) were 0.1 μg/cm^2 and 0.005 μg/cm^2, respectively. The “R. sanguineus Mortality (%) 48 h” value in data set [3] is 100%. For the same compound, the “R. sanguineus LD50” value in data set [4] came out at 1.0 μg/tick.

Regarding `C/C(=N\OCC(F)(F)F)c1cc(Cl)ccc1NS(=O)(=O)C(F)(F)F` [Compound 186], the mortality at 1.26 µg/cm2, 1.26 µg/cm2 in data set [1] (setting [6]) and in data set [1] (setting [7]) was 100% throughout. Also, the “C. felis LC50” value in data set [2] (Laboratory 1 C data) is given as 0.1 μg/cm^2; in data set [2] (Laboratory 2 D data), 0.006 μg/cm^2. Further, in data set [3], the “R. sanguineus Mortality (%) 48 h” value is 100%. In addition, the “R. sanguineus LD50” value in data set [4] is listed as 0.9 μg/tick.

`C/C(=N\OCC1CCCC1)c1cc(Cl)ccc1NS(=O)(=O)C(F)(F)F` [Compound 189]: the mortality at 1.26 µg/cm2, 1.26 µg/cm2 was found to be 91% in data set [1] (setting [6]) and 97% in data set [1] (setting [7]). The “C. felis LC50” value in data set [2] (Laboratory 2 D data) is reported as 0.01^D μg/cm^2. For the same compound, in data set [3], the “R. sanguineus Mortality (%) 48 h” value was found to be 100%. In addition, the “R. sanguineus LD50” value in data set [4] is recorded as 2.2 μg/tick.

Consider `CC/C(=N\OCc1cccs1)c1cc(Cl)ccc1NS(=O)(=O)C(F)(F)F` [Compound 207, N-{4-chloro-2-[1-(thiophen-2-ylmethoxyimino)propyl]phenyl}trifluoromethanesulfonamide], for which the mortality at 1.26 µg/cm2, 1.26 µg/cm2 in data set [1] (setting [6]) was found to be 98%; in data set [1] (setting [7]) it was 100%. In addition, the “C. felis LC50” value in data set [2] (Laboratory 2 D data) is recorded as 0.007^D μg/cm^2. Moreover, the “R. sanguineus Mortality (%) 48 h” value in data set [3] was 100%. Moreover, in data set [4], the “R. sanguineus LD50” value was determined as 2.5 μg/tick.

In the case of `CCC/C(=N\OCC)c1cc(Cl)ccc1NS(=O)(=O)C(F)(F)F` [Compound 193, N-[4-chloro-2-(1-ethoxyiminobutyl)phenyl]trifluoromethanesulfonamide], the values for the mortality at 1.26 µg/cm2, 1.26 µg/cm2 in data set [1] (setting [6]) and in data set [1] (setting [7]) were 88% and 100%, respectively. In addition, in data set [2] (Laboratory 2 D data), the “C. felis LC50” value is on record as 0.01^D μg/cm^2. In addition, in data set [3], the “R. sanguineus Mortality (%) 48 h” value was determined as 95%. Also, in data set [4], the “R. sanguineus LD50” value is 1.2 μg/tick.

Take `C/C(=N\OC(C)(C)C)c1cc(Cl)ccc1NS(=O)(=O)C(F)(F)F` [Compound 223]: the mortality at 1.26 µg/cm2, 1.26 µg/cm2 in data set [1] (setting [6]) came to 92%; in data set [1] (setting [7]), 100%. In addition, the “C. felis LC50” value in data set [2] (Laboratory 2 D data) is 0.04^D μg/cm^2. Also, the “R. sanguineus Mortality (%) 48 h” value in data set [3] is on record as 97%. Moreover, the “R. sanguineus LD50” value in data set [4] was 1.4 μg/tick.

As to `CC/C(=N\OC1CCCC1)c1cc(Cl)ccc1NS(=O)(=O)C(F)(F)F` [Compound 155], the mortality at 1.26 µg/cm2, 1.26 µg/cm2 in data set [1] (setting [5]) came out at 100%. Moreover, the “C. felis LC50” value in data set [2] (Laboratory 1 C data) stood at 0.2 μg/cm^2; in data set [2] (Laboratory 2 D data) it was 0.02 μg/cm^2. Moreover, in data set [3], the “R. sanguineus Mortality (%) 48 h” value is 92%. Further, the “R. sanguineus LD50” value in data set [4] stood at 1.5 μg/tick.

For the origin of these results see US7312248B2, “Control of parasites in animals by the use of novel trifluoromethanesulfonanilide oxime ether derivatives” (Schering-Plough Animal Health Corporation, priority 2004, dated 2007).
